Data: publication PMC3535830 (Bioorganic & medicinal chemistry letters, 2012)
Like-named read-outs stand apart in the source and are kept apart here.

Key:
human M4 receptor [1] = target: T1, human M4 receptor (Homo sapiens, UniProt P08173); assay: human M4 positive allosteric modulator potency assay; assay type: cell-based; settings: human M4 PAM; mean of at least 3 experiments
T1 sequence (P08173 1-479): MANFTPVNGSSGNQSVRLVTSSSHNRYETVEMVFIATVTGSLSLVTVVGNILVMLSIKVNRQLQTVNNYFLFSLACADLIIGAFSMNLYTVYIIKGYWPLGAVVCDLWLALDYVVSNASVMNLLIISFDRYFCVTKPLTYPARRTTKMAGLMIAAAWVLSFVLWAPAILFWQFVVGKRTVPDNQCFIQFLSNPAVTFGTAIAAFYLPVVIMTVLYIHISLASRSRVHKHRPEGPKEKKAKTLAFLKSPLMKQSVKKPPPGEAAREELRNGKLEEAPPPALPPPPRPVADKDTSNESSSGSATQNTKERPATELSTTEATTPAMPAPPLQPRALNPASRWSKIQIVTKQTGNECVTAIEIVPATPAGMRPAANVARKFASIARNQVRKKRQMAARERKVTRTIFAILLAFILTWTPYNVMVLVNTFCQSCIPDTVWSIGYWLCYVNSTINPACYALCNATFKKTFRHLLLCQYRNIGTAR

[2] = in vitro PK: predicted hepatic clearance, human; assay type: in vitro ADME
[3] = in vitro PK: predicted hepatic clearance, rat; assay type: in vitro ADME; settings: for predicted clearance in the rat (CLHEP), in words: in vitro PK prediction; for rCLHEP: in vitro predicted hepatic clearance
[4] = rat equilibrium dialysis plasma protein binding; assay type: in vitro ADME; settings: fraction unbound
hM2 = target: T2, hM2 (Homo sapiens, UniProt P08172); assay: muscarinic selectivity hM2; assay type: cell-based
T2 sequence (P08172 1-466): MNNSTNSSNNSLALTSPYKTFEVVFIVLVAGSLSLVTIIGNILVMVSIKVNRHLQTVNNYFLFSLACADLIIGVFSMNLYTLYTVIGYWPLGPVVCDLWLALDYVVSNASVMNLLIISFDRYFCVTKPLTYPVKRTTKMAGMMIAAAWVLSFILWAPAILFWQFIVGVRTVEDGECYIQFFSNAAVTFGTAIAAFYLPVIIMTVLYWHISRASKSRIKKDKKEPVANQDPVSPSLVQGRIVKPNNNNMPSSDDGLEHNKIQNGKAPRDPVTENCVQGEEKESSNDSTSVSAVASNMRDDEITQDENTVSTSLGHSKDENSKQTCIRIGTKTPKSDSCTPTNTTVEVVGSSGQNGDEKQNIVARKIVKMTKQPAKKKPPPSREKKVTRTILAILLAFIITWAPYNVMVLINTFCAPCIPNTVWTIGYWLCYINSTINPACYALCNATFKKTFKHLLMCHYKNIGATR

rM2 = target: T3, rM2 (Rattus norvegicus, UniProt P10980); assay: muscarinic selectivity rM2; assay type: cell-based
T3 sequence (P10980 1-466): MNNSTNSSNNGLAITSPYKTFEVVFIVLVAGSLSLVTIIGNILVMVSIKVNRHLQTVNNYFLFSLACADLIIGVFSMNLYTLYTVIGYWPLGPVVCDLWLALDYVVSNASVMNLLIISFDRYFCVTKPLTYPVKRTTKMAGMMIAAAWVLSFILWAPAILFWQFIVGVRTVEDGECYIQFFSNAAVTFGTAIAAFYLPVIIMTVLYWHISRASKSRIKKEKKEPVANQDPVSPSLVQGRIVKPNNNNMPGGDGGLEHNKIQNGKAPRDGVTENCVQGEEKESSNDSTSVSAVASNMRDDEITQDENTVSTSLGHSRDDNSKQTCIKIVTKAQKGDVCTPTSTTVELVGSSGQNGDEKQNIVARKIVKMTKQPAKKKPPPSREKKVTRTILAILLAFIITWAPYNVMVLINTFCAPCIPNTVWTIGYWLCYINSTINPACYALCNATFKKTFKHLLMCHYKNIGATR

[5] = tested on: other four mAChR subtypes (M1, M2, M3, M5); assay: selectivity against the other four mAChR subtypes; assay type: cell-based; settings: read-out: activity against all four other mAChR subtypes
human M4 receptor [6] = target: T1, human M4 receptor; settings: cited from earlier work
rat M4 receptor = target: T4, rat M4 receptor (Rattus norvegicus, UniProt P08485); settings: read-out: rat M4 potency; cited from earlier work
T4 sequence (P08485 1-478): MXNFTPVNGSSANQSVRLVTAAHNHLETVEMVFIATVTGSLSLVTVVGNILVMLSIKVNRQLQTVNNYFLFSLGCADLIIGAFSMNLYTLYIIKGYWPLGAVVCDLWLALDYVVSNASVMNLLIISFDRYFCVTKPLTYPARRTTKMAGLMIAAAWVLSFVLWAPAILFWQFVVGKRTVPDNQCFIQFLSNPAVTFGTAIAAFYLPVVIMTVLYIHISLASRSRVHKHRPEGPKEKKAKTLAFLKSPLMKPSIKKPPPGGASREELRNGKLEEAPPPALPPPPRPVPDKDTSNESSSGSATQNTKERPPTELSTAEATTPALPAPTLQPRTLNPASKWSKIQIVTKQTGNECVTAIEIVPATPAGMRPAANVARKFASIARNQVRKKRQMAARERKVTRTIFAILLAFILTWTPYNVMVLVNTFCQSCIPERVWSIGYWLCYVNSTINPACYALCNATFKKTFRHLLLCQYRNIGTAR

Structure (SMILES) | pEC50 ± SEM (human M4 receptor [1]) | also measured
Cc1nc2sc(C(=O)NCc3cccc(F)c3F)c(N)c2c(C)c1Cl [Compound 2] | 6.91 ± 0.05 | –
Cc1nc2sc(C(=O)NC3CC3)c(N)c2c(C)c1Cl [Compound 3] | 7.11 ± 0.32 | hCLHEP [2]: 13.9 mL/min/kg; predicted clearance in the rat (CLHEP), in words [3]: high clearance; rCLHEP [3]: 51.0 mL/min/kg; rPPB (%fu) [4]: ~ 2%; EC50 (hM2): ~600 nM; EC50 (rM2): ~600 nM
Cc1nc2sc(C(=O)NCc3ccncc3)c(N)c2c(C)c1Cl [Compound 4, 3-amino-5-chloro-4,6-dimethyl-N-(pyridinyl-4-methyl)thieno[2,3-b]pyridine-2-carboxamide] | – | predicted clearance in the rat (CLHEP), in words [3]: high clearance; rCLHEP [3]: 55.2 mL/min/kg; EC50 [5]: > 30000 nM
Cc1cc(CNC(=O)c2sc3nc(C)c(Cl)c(C)c3c2N)ccn1 [Compound 6] | 7.21 ± 0.05 | –
Cc1nc2sc(C(=O)NC(C)c3cccnc3)c(N)c2c(C)c1Cl (centres unmarked) [Compound 8] | 6.17 ± 0.08 | –
Cc1nc2sc(C(=O)NC(C)c3ccccn3)c(N)c2c(C)c1Cl (centres unmarked) [Compound 10] | 5.86 ± 0.07 | –
Cc1nc2sc(C(=O)NCCc3ccncc3)c(N)c2c(C)c1Cl [Compound 11] | 6.89 ± 0.09 | –
Cc1nc2sc(C(=O)NCCc3ccccn3)c(N)c2c(C)c1Cl [Compound 13] | 6.07 ± 0.06 | –
Cc1nc2sc(C(=O)NCc3ccncn3)c(N)c2c(C)c1Cl [Compound 15] | 6.57 ± 0.06 | –
Cc1nc2sc(C(=O)NCc3ccnnc3)c(N)c2c(C)c1Cl [Compound 17] | 6.49 ± 0.08 | –
Cc1nc2sc(C(=O)NCc3ccc4c(c3)OCO4)c(N)c2c(C)c1Cl [Compound 18] | 7.09 ± 0.08 | –
Cc1nc2sc(C(=O)NCc3ccccc3)c(N)c2c(C)c1Cl [Compound 19] | 6.97 ± 0.05 | –
Cc1nc2sc(C(=O)NCc3ccc(F)c(F)c3)c(N)c2c(C)c1Cl [Compound 20] | 6.81 ± 0.28 | –
Cc1nc2sc(C(=O)NCc3ccccc3Cl)c(N)c2c(C)c1Cl [Compound 21] | 6.81 ± 0.07 | –
Cc1ccc(CNC(=O)c2sc3nc(C)c(Cl)c(C)c3c2N)cc1 [Compound 22] | 6.98 ± 0.10 | –
Cc1nc2sc(C(=O)NCc3ccc(Cl)cc3)c(N)c2c(C)c1Cl [Compound 23] | 6.75 ± 0.14 | –
Cc1nc2sc(C(=O)NCc3nccs3)c(N)c2c(C)c1Cl [Compound 24] | 6.60 ± 0.07 | –
Cc1nc2sc(C(=O)NCc3ccc(C(F)(F)F)cc3)c(N)c2c(C)c1Cl [Compound 25] | 5.76 ± 0.27 | –
Cc1nc2sc(C(=O)NC3CCOC3)c(N)c2c(C)c1Cl (centres unmarked) [Compound 29] | 7.28 ± 0.07 | –
Cc1nc2sc(C(=O)NC3COC3)c(N)c2c(C)c1Cl [Compound 30] | 5.70 ± 0.24 | –
Cc1nc2sc(C(=O)NC(C)C)c(N)c2c(C)c1Cl [Compound 31] | 6.83 ± 0.06 | –
Cc1nc2sc(C(=O)NC3CCCCC3)c(N)c2c(C)c1Cl [Compound 32] | 6.65 ± 0.03 | –
Cc1nc2sc(C(=O)NC(C)(C)C)c(N)c2c(C)c1Cl [Compound 34] | 6.51 ± 0.05 | –
Cc1nc2sc(C(=O)NCCC3CCCN3C)c(N)c2c(C)c1Cl (centres unmarked) [Compound 36] | 6.03 ± 0.07 | –
COc1nc2sc(C(=O)NC3CC3)c(N)c2c(C)c1Cl [LY2033298] | – | EC50 (human M4 receptor [6]; read-out: human M4 potency, human receptor): 65 nM; EC50 (rat M4 receptor): 629 nM
COc1ccc(C)c2sc(NC(=O)c3ccncc3)nc12 [ML293] | – | EC50 (human M4 receptor [6]; read-out: hM4 potency, previously reported probe, ref 9d): 1300 nM
